# From patent publication US10005817B2, “Peptide pharmaceuticals” (EUMEDERIS PHARMACEUTICALS, INC., priority 2012, dated 2018)
# Entries after “also recorded” stand apart in the source; their conditions may differ. Where two headings read alike, the source gives them in different places. Non-standard residues stand in square brackets, D forms with d. Residues, ends and D or L forms follow the SMILES beside them. *: point of attachment. GlcA(β-D,1-O-dodecyl) = CCCCCCCCCCCCO[C@@H]1O[C@H](C(=O)*)[C@@H](O)[C@H](O)[C@H]1O; GlcA(β1-O-octyl) = CCCCCCCCO[C@@H]1O[C@H](C(=O)*)[C@@H](O)[C@H](O)[C@H]1O; Phe(2,4,6-Me3) = Cc1cc(C)c(C[C@H](N)C(=O)O)c(C)c1; Dmt = Cc1cc(O)cc(C)c1C[C@H](N)C(=O)O; hArg = N=C(N)NCCCC[C@H](N)C(=O)O; Nle = CCCC[C@H](N)C(=O)O; Ac5c = NC1(C(=O)O)CCCC1; Aib = CC(C)(N)C(=O)O
# Key:
# blood PO4 levels in rats = experiment: blood phosphate levels in rats after single s.c. injection; type: in vivo, rat
# Source text: Following the method of Frolik, C.
# PTH receptor (PTHR1) = target: T1, PTH receptor (PTHR1) (Homo sapiens, UniProt Q03431); experiment: PTH1 cellular assay, cAMP, agonist mode (SaOS2 cells, Cerep); type: cell-based
# T1 construct: Cerep SA
# T1 sequence (Q03431 27-593): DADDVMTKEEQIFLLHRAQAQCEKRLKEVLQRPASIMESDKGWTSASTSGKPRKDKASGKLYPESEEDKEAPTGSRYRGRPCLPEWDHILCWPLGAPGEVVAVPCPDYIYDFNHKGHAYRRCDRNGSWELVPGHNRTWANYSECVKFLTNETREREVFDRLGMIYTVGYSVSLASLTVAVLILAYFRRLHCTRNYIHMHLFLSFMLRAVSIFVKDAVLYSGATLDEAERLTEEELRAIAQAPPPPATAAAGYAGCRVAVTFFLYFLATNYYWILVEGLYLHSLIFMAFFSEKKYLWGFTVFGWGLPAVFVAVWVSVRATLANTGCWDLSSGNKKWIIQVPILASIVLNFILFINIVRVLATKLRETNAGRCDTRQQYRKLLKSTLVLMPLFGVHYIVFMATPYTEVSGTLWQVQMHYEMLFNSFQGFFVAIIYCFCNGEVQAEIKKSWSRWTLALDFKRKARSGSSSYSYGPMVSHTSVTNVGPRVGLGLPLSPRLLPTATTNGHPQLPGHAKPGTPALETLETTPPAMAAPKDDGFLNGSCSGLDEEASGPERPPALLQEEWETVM
# Description: Compounds were weighed precisely in an amount of approximately 1 mg and assayed in standard cellular assays (cerep SA). The readout is the amount of cAMP generated in the cells treated with the test compounds, in either agonist or antagonist mode.
# Compounds were dissolved in water and diluted in assay buffer containing 1% bovine serum albumin.
# blood Ca levels in rats = settings: sc, 320 micrograms per kg (G4), at 5 hrs
# Description: Each animal in a group was treated with a single sc injection of either vehicle or test agent.
# Blood samples were collected via retro-orbital vein at 0.5, 1, 2, 4, and 5 hrs. post-injection and blood samples were stored on ice prior to centrifugation and testing for blood PO4 and Ca levels.
# mu opioid receptor [1] = target: T2, mu opioid receptor (Homo sapiens, UniProt P35372); experiment: mu opioid receptor cellular assay (MOP), agonist mode, cAMP readout (Cerep); type: cell-based
# T2 construct: Cerep
# Description: (§1) Compounds were weighed precisely in an amount of approximately 2 mg and assayed in standard cellular assays by the contract research organization Cerep, Inc. (Pullman, Wash.) as executed at their subsidiary, Cerep SA (Le Bois l'Eveque, France). The readout is the amount of cAMP generated in the cells treated with the test compounds, in either agonist or antagonist mode. The assays used were the mu opioid receptor cellular assay (MOP in agonist and antagonist mode), the delta2 opioid receptor cellular assay (DOP in agonist and antagonist mode) and the kappa opioid receptor cellular assay (KOP in agonist and antagonist mode). The assays used are described in Wang, J. B., et al. (1994) FEBS Lett 338: 217-222, Law, P. Y. and Loh, H. H. (1993) Mol Pharmacol 43: 684-693, and Avidor-Reiss, T., et al. (1995) FEBS Lett 361: 70-74. The stimulant for the cells in the DOR antagonist assay was 3×10E-8M DPDPE, a well-accepted DOR literature standard.
# mu opioid receptor [2] = target: T2, mu opioid receptor; experiment: mu opioid receptor cellular assay (MOP), antagonist mode, cAMP readout (Cerep); type: cell-based
# Description: as §1
# db/db mice = experiment: db/db mice, blood glucose after s.c. dosing; type: in vivo, mouse; settings: db/db mice, s.c., 250 nmole/kg
# Description: The 60 female db/db B6BKS (D) Leprdb/J (strain 000697) mice for this study were approximately 8 to 9 weeks old at arrival (Jackson Laboratory, Bar Harbor, Me.). […] One group of 8 female mice served as the vehicle control and received the vehicle, 0.2% BSA in saline, pH 7.4. One additional group of 8 female mice received the positive control article, liraglutide, at a dose level of 50 nmoles/kg. The test articles, vehicle, and positive control article were administered on Day 1, at approximately 0, 7, and 24 hours during the study via subcutaneous injection at a dose volume of 6 mL/kg.
# Clinical observations were conducted at receipt, prior to randomization, and daily from Days 1 to 5. Body weights were measured and recorded at receipt, prior to randomization, and daily from Days 1 to 5. Food consumption was measured and recorded daily from Days 1 to 5. Blood samples for glucose analysis were collected pretest (Day −3) and at 0, 1, 2, 4, 8, 10, 24, 48, 72, and 96 hours following the first dose on Day 1. At study termination all animals were euthanized and the carcasses were discarded without further evaluation.
# [3] = plasma protease stability, incubation in human plasma at 37 degC, LC-MS; type: in vitro ADME; settings: over 8 hrs
# [4] = in the body; by s.c. injection; cited from earlier work
# [5] = in vivo; cited from earlier work
# T2 sequence (P35372 whole entry): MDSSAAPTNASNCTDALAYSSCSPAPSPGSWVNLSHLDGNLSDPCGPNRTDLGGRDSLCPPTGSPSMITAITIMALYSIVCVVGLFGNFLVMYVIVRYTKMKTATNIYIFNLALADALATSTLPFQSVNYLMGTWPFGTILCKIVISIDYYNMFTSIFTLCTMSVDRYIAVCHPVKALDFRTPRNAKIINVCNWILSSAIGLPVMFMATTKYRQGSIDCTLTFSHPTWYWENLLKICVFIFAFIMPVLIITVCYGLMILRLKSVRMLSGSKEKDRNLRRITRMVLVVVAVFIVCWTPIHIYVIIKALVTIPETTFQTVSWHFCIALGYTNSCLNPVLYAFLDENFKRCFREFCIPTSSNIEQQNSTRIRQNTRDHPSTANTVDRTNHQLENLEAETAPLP
smiles,measurement,setting,value
"CCCCCCCCCCCCO[C@@H]1O[C@H](C(=O)NCCCC[C@H](NC(=O)C(C)(C)NC(=O)[C@H](CCC(N)=O)NC(=O)[C@@H](NC(=O)[C@H](Cc2c[nH]c3ccccc23)NC(=O)[C@H](CCCNC(=N)N)NC(=O)[C@H](C)NC(=O)[C@H](CCCCNC(=N)N)NC(=O)[C@H](CCC(N)=O)NC(=O)[C@H](Cc2c[nH]cn2)NC(=O)[C@H](CCCC)NC(=O)[C@H](CC(C)C)NC(=O)[C@H](CCC(N)=O)NC(=O)[C@@H](NC(=O)[C@H](CCC(=O)O)NC(=O)C(C)(C)NC(=O)[C@@H](NC(=O)C2(N)CCCC2)C(C)C)[C@@H](C)CC)[C@@H](C)CC)C(=O)NC(C)(C)C(N)=O)[C@@H](O)[C@H](O)[C@H]1O [EU-232, Ac5c1-Val2-Aib3-Glu4-Ile5-Gln6-Leu7-Nle8-His9-Gln10-hArg11-Ala12-Arg13-Trp14-Ile15-Gln16-Aib17-Lys(N-epsilon-1′-dodecylbeta-D-glucuronyl)18-Aib19-NH2] (H-[Ac5c]V[Aib]EIQL[Nle]HQ[hArg]ARWIQ[Aib]K(GlcA(β-D,1-O-dodecyl))[Aib]-NH2)",time point of maximal statistically significant effect on blood phosphate,"blood PO4 levels in rats; sc, last time point in the assay",5 h
same,blood PO4 levels,"blood PO4 levels in rats; single sc injection, 80 mcg groups",transient but not statistically significant decrease
same,maximal decrease in blood PO4 levels from time 0 hr. level,"blood PO4 levels in rats; single sc injection, 5 hr. time point, dose not named in the sentence (320 group)",25-35%
same,Characterization,PTH receptor (PTHR1),super-agonistic response; also recorded: super-agonistic activity; also recorded: agonist
same,EC50,PTH receptor (PTHR1),2.4 nM
same,Emax,"PTH receptor (PTHR1); SAOS-2, read-out: Maximal response (% PTHrP)",145%
same,Emax,"PTH receptor (PTHR1); SAOS-2, read-out: maximal response",125%
same,blood calcium levels,blood Ca levels in rats,no elevation
"CCCCCCCCO[C@@H]1O[C@H](C(=O)NCCCC[C@H](NC(=O)[C@H](Cc2c(C)cc(C)cc2C)NC(=O)[C@@H]2CCCN2C(=O)[C@@H](N)Cc2c(C)cc(O)cc2C)C(N)=O)[C@@H](O)[C@H](O)[C@H]1O [EU-A102, 2′,6′-dimethyl-L-tyrosyl-prolyl-2′,4′,6′-trimethyl-L-phenylalanyl-Nε-(1′-octyl β-D-glucuronyl)-L-lysine amide] (H-[Dmt]P[Phe(2,4,6-Me3)]K(GlcA(β1-O-octyl))-NH2)",Characterization (MOP),mu opioid receptor [1],partial agonist
same,EC50,mu opioid receptor [1],100 nM
same,IC50,mu opioid receptor [2],100 nM
"CCCCCCCCCCCCO[C@@H]1O[C@H](C(=O)NCCCC[C@H](NC(=O)[C@H](Cc2c(C)cc(C)cc2C)NC(=O)[C@@H]2CCCN2C(=O)[C@@H](N)Cc2c(C)cc(O)cc2C)C(N)=O)[C@@H](O)[C@H](O)[C@H]1O [EU-A103, Dmt-Pro-Tmp-Lys(C12-glucuronyl)-NH2] (H-[Dmt]P[Phe(2,4,6-Me3)]K(GlcA(β-D,1-O-dodecyl))-NH2)",Characterization (MOP),mu opioid receptor [1],pure antagonist
same,IC50,mu opioid receptor [2],86 nM
CCCCCCCCCCCCO[C@@H]1O[C@H](C(=O)NCCCC[C@H](NC(=O)[C@@H](NC(=O)[C@H](Cc2ccccc2)NC(=O)[C@H](CCC(=O)O)NC(=O)[C@@H]2CCCCNC(=O)CC[C@H](NC(=O)[C@H](CC(=O)O)NC(=O)[C@H](CC(C)C)NC(=O)[C@H](Cc3ccc(O)cc3)NC(=O)[C@H](CCCCN)NC(=O)[C@H](CO)NC(=O)[C@H](Cc3ccc(O)cc3)NC(=O)[C@H](CC(=O)O)NC(=O)[C@H](CO)NC(=O)[C@@H](NC(=O)[C@H](Cc3ccccc3)NC(=O)[C@@H](NC(=O)CNC(=O)[C@H](CCC(N)=O)NC(=O)C(C)(C)NC(=O)[C@@H](N)Cc3c[nH]cn3)[C@@H](C)O)[C@@H](C)O)C(=O)N[C@@H](CCC(N)=O)C(=O)N[C@@H](C)C(=O)N[C@@H](C)C(=O)N2)[C@@H](C)CC)C(=O)N[C@@H](Cc2c[nH]c3ccccc23)C(=O)N[C@@H](CC(C)C)C(=O)N[C@@H](CC(C)C)C(=O)N[C@@H](CCC(N)=O)C(=O)N[C@H](C(N)=O)[C@@H](C)O)[C@@H](O)[C@H](O)[C@H]1O [EU-A993],Mean Blood Glucose,db/db mice; 0 hr,503 mg/dL
same,Mean Blood Glucose,db/db mice; 10 hr,305 mg/dL
same,Mean Blood Glucose,db/db mice; 24 hr,324 mg/dL
same,Mean Blood Glucose,db/db mice; 48 hr,426 mg/dL
same,amount of intact compound versus time in human plasma,[3],essentially no change
CC[C@H](C)[C@H](NC(=O)[C@H](CCC(=O)O)NC(=O)[C@H](CO)NC(=O)[C@@H](NC(=O)[C@@H](N)CO)C(C)C)C(=O)N[C@@H](CCC(N)=O)C(=O)N[C@@H](CC(C)C)C(=O)N[C@@H](CCSC)C(=O)N[C@@H](Cc1cnc[nH]1)C(=O)N[C@@H](CC(N)=O)C(=O)N[C@@H](CC(C)C)C(=O)NCC(=O)N[C@@H](CCCCN)C(=O)N[C@@H](Cc1cnc[nH]1)C(=O)N[C@@H](CC(C)C)C(=O)N[C@@H](CC(N)=O)C(=O)N[C@@H](CO)C(=O)N[C@@H](CCSC)C(=O)N[C@@H](CCC(=O)O)C(=O)N[C@@H](CCCN=C(N)N)C(=O)N[C@H](C(=O)N[C@@H](CCC(=O)O)C(=O)N[C@@H](Cc1c[nH]c2ccccc12)C(=O)N[C@@H](CC(C)C)C(=O)N[C@@H](CCCN=C(N)N)C(=O)N[C@@H](CCCCN)C(=O)N[C@@H](CCCCN)C(=O)N[C@@H](CC(C)C)C(=O)N[C@@H](CCC(N)=O)C(=O)N[C@@H](CC(=O)O)C(=O)N[C@H](C(=O)N[C@@H](Cc1cnc[nH]1)C(=O)N[C@@H](CC(N)=O)C(=O)N[C@@H](Cc1ccccc1)C(=O)O)C(C)C)C(C)C [PTH],half-life,[4],30 min
CC[C@H](C)[C@H](NC(=O)[C@H](CCC(=O)O)NC(=O)[C@H](CO)NC(=O)[C@@H](NC(=O)[C@@H](N)CO)C(C)C)C(=O)N[C@@H](CCC(N)=O)C(=O)N[C@@H](CC(C)C)C(=O)N[C@@H](CCSC)C(=O)N[C@@H](Cc1cnc[nH]1)C(=O)N[C@@H](CC(N)=O)C(=O)N[C@@H](CC(C)C)C(=O)NCC(=O)N[C@@H](CCCCN)C(=O)N[C@@H](Cc1cnc[nH]1)C(=O)N[C@@H](CC(C)C)C(=O)N[C@@H](CC(N)=O)C(=O)N[C@@H](CO)C(=O)N[C@@H](CCSC)C(=O)N[C@@H](CCC(=O)O)C(=O)N[C@@H](CCCN=C(N)N)C(=O)N[C@H](C(=O)N[C@@H](CCC(=O)O)C(=O)N[C@@H](Cc1c[nH]c2ccccc12)C(=O)N[C@@H](CC(C)C)C(=O)N[C@@H](CCCN=C(N)N)C(=O)N[C@@H](CCCCN)C(=O)N[C@@H](CCCCN)C(=O)N[C@@H](CC(C)C)C(=O)N[C@@H](CCC(N)=O)C(=O)N[C@@H](CC(=O)O)C(=O)N[C@H](C(=O)N[C@@H](Cc1cnc[nH]1)C(=O)N[C@@H](CC(N)=O)C(=O)N[C@@H](Cc1ccccc1)C(=O)O)C(C)C)C(C)C [Teriparatide],half life,[5],19 min
